From paper doi:10.1101/2020.06.11.145995v1 (biorxiv, 2020)
Like-named read-outs stand apart in the source and are kept apart here.

Key:
Test in all cases: biochemical
[1] = molecular target: ABL1(Q252H)-nonphosphorylated (Homo sapiens, UniProt P00519, Q252H)
[2] = molecular target: ABL1-phosphorylated (Homo sapiens, UniProt P00519)
[3] = molecular target: NEK9 (Homo sapiens, UniProt Q8TD19)
[4] = molecular target: PRKR (Homo sapiens, UniProt P19525)
[5] = molecular target: TAOK1 (Homo sapiens, UniProt Q7L7X3)
[6] = molecular target: VEGFR2 (Homo sapiens, UniProt P35968)
Chain of VEGFR2 (P35968 whole entry): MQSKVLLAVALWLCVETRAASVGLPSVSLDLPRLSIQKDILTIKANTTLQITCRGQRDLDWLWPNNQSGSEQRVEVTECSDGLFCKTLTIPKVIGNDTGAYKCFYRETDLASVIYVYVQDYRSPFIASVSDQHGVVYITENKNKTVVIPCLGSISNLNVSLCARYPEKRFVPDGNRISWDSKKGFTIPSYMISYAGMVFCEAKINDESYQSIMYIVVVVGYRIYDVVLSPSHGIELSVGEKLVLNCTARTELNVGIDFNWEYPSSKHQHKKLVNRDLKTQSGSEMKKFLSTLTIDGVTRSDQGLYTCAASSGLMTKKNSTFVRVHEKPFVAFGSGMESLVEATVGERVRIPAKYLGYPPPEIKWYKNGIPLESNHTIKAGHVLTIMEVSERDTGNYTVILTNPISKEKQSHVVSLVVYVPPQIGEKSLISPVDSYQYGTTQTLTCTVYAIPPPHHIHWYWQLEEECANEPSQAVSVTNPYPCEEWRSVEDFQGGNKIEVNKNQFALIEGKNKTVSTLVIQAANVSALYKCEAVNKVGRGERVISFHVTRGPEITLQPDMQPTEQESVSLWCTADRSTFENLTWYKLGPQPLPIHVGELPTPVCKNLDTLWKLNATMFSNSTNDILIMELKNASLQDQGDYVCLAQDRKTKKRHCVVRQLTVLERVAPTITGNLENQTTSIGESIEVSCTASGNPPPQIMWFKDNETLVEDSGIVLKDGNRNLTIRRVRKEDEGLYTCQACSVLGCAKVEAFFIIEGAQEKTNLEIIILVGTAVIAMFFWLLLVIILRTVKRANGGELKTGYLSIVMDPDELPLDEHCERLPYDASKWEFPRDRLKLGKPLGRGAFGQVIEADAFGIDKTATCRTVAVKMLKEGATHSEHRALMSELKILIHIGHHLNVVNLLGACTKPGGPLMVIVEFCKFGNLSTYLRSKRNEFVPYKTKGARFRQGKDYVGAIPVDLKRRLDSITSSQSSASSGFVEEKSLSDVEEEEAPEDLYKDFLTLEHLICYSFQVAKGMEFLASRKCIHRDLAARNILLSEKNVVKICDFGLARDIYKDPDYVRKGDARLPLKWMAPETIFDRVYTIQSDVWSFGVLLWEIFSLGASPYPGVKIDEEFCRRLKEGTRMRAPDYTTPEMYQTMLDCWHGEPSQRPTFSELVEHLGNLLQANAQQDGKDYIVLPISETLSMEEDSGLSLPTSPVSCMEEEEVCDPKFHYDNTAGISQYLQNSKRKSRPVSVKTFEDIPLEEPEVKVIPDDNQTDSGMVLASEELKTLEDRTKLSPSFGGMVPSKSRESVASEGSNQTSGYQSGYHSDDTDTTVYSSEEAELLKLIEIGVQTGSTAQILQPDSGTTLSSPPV

[7] = molecular target: PRKD3 (Homo sapiens, UniProt O94806)
[8] = molecular target: PAK4 (Homo sapiens, UniProt O96013)
Chain of PAK4 (O96013 whole entry): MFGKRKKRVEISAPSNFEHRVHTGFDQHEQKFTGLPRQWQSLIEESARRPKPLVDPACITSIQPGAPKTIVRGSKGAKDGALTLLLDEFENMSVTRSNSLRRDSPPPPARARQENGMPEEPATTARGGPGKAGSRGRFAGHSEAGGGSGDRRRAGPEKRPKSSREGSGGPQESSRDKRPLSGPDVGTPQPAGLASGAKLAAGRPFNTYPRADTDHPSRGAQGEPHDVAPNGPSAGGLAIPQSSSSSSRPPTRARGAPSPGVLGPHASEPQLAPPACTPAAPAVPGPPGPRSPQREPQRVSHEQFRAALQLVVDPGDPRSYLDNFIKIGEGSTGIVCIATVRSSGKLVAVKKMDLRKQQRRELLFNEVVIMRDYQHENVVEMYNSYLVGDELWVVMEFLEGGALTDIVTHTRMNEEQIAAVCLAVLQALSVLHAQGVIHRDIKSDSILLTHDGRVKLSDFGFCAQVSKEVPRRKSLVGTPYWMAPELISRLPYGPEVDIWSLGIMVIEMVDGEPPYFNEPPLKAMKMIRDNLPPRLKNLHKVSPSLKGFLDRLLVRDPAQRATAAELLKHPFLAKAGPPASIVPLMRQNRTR

[9] = molecular target: SRPK1 (Homo sapiens, UniProt Q96SB4)
[10] = molecular target: NIM1 (Homo sapiens, UniProt Q8IY84)
[11] = molecular target: YSK4 (Homo sapiens, UniProt Q56UN5)
[12] = molecular target: YANK2 (Homo sapiens, UniProt Q9NY57)
Chain of YANK2 (Q9NY57 whole entry): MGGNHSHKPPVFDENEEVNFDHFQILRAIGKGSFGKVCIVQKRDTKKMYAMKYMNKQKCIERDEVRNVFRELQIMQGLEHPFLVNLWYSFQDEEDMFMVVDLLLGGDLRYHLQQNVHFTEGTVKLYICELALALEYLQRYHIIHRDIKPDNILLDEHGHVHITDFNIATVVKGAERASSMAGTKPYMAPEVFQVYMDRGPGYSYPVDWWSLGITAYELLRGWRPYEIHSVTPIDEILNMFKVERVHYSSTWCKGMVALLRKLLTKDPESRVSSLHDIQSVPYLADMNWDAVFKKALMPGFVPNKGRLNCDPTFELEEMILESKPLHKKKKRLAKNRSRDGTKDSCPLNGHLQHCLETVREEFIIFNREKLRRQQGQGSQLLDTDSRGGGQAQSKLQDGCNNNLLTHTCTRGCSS

[13] = molecular target: TAK1 (Homo sapiens, UniProt O43318)
[14] = molecular target: VRK2 (Homo sapiens, UniProt Q86Y07)
Chain of VRK2 (Q86Y07 whole entry): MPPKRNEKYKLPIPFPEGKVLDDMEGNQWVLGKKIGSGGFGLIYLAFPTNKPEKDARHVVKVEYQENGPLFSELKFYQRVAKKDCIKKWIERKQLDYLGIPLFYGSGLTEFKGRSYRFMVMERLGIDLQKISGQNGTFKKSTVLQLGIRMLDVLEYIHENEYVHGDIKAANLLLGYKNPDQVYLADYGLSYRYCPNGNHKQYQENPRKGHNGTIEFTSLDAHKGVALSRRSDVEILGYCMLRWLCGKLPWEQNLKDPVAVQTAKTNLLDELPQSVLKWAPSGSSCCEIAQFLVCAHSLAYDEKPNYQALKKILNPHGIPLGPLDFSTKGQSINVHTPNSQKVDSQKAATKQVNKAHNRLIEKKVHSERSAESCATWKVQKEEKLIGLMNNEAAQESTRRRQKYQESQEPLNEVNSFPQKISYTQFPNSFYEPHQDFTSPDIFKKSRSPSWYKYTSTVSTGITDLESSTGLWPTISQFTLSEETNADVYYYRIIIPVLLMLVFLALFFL

[15] = molecular target: NEK5 (Homo sapiens, UniProt Q6P3R8)
[16] = molecular target: PLK1 (Homo sapiens, UniProt P53350)
[17] = molecular target: PRKCD (Homo sapiens, UniProt Q05655)
Chain of PRKCD (Q05655 whole entry): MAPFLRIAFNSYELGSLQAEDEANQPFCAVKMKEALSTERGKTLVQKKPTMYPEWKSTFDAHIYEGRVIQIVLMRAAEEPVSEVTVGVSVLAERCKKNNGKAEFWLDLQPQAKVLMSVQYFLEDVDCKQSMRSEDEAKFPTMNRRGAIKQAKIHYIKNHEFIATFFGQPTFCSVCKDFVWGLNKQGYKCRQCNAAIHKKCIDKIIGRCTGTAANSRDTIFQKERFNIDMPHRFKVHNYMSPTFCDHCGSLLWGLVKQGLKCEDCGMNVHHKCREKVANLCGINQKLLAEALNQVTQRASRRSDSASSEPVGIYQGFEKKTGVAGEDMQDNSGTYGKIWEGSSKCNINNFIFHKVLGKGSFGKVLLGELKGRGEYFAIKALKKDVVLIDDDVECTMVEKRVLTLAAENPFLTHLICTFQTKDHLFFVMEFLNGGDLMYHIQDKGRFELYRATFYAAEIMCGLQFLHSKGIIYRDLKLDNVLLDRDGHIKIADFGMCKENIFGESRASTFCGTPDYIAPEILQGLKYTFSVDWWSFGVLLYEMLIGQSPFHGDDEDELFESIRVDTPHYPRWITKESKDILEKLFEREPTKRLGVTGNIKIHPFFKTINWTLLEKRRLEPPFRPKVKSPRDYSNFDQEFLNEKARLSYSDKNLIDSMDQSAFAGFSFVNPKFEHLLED

[18] = molecular target: SNRK (Homo sapiens, UniProt Q9NRH2)
[19] = molecular target: RAF1 (Homo sapiens, UniProt P04049)
[20] = molecular target: PLK2 (Homo sapiens, UniProt Q9NYY3)
[21] = molecular target: TNK2 (Homo sapiens, UniProt Q07912)
Chain of TNK2 (Q07912 whole entry): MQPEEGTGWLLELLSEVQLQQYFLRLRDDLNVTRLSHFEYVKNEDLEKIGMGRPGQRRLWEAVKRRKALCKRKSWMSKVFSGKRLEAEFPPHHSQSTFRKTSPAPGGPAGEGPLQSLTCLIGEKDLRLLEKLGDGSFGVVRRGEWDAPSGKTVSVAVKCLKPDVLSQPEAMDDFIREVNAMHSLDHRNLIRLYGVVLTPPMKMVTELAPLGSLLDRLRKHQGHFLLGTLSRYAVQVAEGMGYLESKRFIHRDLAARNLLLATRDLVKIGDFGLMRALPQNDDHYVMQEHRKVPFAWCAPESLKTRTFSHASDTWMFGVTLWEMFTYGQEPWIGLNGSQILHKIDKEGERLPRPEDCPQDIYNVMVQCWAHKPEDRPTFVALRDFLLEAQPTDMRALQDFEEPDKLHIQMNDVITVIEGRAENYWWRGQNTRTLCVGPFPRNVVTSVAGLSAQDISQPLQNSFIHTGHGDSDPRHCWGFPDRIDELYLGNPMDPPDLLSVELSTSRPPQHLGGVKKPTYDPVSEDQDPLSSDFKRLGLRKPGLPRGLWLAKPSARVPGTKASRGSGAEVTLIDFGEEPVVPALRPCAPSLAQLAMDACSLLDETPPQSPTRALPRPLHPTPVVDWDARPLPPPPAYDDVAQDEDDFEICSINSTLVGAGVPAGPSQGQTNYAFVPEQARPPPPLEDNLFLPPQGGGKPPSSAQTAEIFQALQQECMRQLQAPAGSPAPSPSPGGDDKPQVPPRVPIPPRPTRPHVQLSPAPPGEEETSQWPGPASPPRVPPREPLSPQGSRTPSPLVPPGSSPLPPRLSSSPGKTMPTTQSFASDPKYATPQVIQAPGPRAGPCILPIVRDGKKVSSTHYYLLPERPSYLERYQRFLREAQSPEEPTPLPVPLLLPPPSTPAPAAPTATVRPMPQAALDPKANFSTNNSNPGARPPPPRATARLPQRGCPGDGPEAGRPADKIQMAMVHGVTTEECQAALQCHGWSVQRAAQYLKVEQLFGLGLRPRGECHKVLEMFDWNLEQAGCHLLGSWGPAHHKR

[22] = molecular target: MKK7 (Homo sapiens, UniProt O14733)
Chain of MKK7 (O14733 whole entry): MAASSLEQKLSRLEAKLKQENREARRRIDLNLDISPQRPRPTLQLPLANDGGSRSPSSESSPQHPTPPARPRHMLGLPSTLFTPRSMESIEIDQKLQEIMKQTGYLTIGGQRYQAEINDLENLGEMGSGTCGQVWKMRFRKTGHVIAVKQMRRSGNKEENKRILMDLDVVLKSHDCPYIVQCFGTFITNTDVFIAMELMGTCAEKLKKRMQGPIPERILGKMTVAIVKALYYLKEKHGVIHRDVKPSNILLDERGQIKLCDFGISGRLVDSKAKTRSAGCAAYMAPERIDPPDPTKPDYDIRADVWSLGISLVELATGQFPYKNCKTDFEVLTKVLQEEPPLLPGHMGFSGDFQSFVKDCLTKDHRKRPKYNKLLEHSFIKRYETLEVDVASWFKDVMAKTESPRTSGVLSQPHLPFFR

[23] = molecular target: PIK3CA(I800L) (Homo sapiens, UniProt P42336, I800L)
[24] = molecular target: ULK3 (Homo sapiens, UniProt Q6PHR2)
[25] = molecular target: SNARK (Homo sapiens, UniProt Q9H093)
[26] = molecular target: PLK3 (Homo sapiens, UniProt Q9H4B4)
[27] = molecular target: TEC (Homo sapiens, UniProt P42680)
[28] = molecular target: PAK3 (Homo sapiens, UniProt O75914)
[29] = molecular target: SRMS (Homo sapiens, UniProt Q9H3Y6)
[30] = read-out: CPT-1-70-1 (1uM) % control
[31] = read-out: CPT-1-70-1 (1μM) % control
[32] = read-out: HYJ-2-002-1 (1uM) % control
[33] = read-out: HYJ-2-002-1 (1μM) % control

CN1CCN(c2ccc(Nc3nc(Oc4ccc(NC(=O)CCl)cc4)c4cc[nH]c4n3)cc2)CC1 [CPT1-70-1]
remaining activity at 1 µM [1, 30]: 52%
remaining activity at 1 µM [2, 30]: 51%
remaining activity at 1 µM [3, 31]: 100%
remaining activity at 1 µM [4, 31]: 93%
remaining activity at 1 µM [5, 31]: 96%
remaining activity at 1 µM [6, 31]: 40%
remaining activity at 1 µM [7, 31]: 54%
remaining activity at 1 µM [8, 31]: 12%
remaining activity at 1 µM [9, 31]: 44%
remaining activity at 1 µM [10, 31]: 100%
remaining activity at 1 µM [11, 31]: 0.45%
remaining activity at 1 µM [12, 31]: 100%
remaining activity at 1 µM [13, 31]: 3.6%
remaining activity at 1 µM [14, 31]: 100%
remaining activity at 1 µM [15, 31]: 82%
remaining activity at 1 µM [16, 31]: 100%
remaining activity at 1 µM [17, 31]: 100%
remaining activity at 1 µM [18, 31]: 55%
remaining activity at 1 µM [19, 31]: 86%
remaining activity at 1 µM [20, 31]: 78%
remaining activity at 1 µM [21, 31]: 100%
remaining activity at 1 µM [22, 31]: 8.1%
remaining activity at 1 µM [23, 31]: 100%
remaining activity at 1 µM [24, 31]: 19%
remaining activity at 1 µM [25, 31]: 8.5%
remaining activity at 1 µM [26, 31]: 100%
remaining activity at 1 µM [27, 31]: 10%
remaining activity at 1 µM [28, 31]: 50%
remaining activity at 1 µM [29, 31]: 100%

CCN1CCN(Cc2ccc(NC(=O)c3ccc(C)c(CCc4cnc5[nH]ccc5c4OC)c3)cc2C(F)(F)F)CC1 [HYJ-2-002-1]
remaining activity at 1 µM [1, 32]: 0.05%
remaining activity at 1 µM [2, 32]: 0.1%
remaining activity at 1 µM [3, 33]: 38%
remaining activity at 1 µM [4, 33]: 75%
remaining activity at 1 µM [5, 33]: 34%
remaining activity at 1 µM [6, 33]: 6.4%
remaining activity at 1 µM [7, 33]: 67%
remaining activity at 1 µM [8, 33]: 99%
remaining activity at 1 µM [9, 33]: 83%
remaining activity at 1 µM [10, 33]: 100%
remaining activity at 1 µM [11, 33]: 0.45%
remaining activity at 1 µM [12, 33]: 100%
remaining activity at 1 µM [13, 33]: 6.6%
remaining activity at 1 µM [14, 33]: 100%
remaining activity at 1 µM [15, 33]: 21%
remaining activity at 1 µM [16, 33]: 100%
remaining activity at 1 µM [17, 33]: 78%
remaining activity at 1 µM [18, 33]: 100%
remaining activity at 1 µM [19, 33]: 8.9%
remaining activity at 1 µM [20, 33]: 100%
remaining activity at 1 µM [21, 33]: 4.1%
remaining activity at 1 µM [22, 33]: 8.2%
remaining activity at 1 µM [23, 33]: 100%
remaining activity at 1 µM [24, 33]: 53%
remaining activity at 1 µM [25, 33]: 100%
remaining activity at 1 µM [26, 33]: 100%
remaining activity at 1 µM [27, 33]: 3.8%
remaining activity at 1 µM [28, 33]: 100%
remaining activity at 1 µM [29, 33]: 8.4%
